Source: article PMC12013614 (RSC Advances, 2025)
Marks after values point to notes of the source that are not given here.

Tests used:
VEGFR-2 = VEGFR-2 (Homo sapiens, UniProt P35968); test: In vitro VEGFR-2 kinase inhibition; assay type: biochemical
MDA-231 cells = test: Cell migration and wound healing assay; assay type: cell-based; settings: 11 μM (0.5 IC50), untreated control 58.95
MDA-MB-231 cells [1] = test: Apoptosis analysis, Annexin V-FITC/PI flow cytometry; assay type: cell-based
MDA-MB-231 cells [2] = test: Cell cycle analysis, PI flow cytometry; assay type: cell-based; settings: 21.68 µM, 48 h
BAX = test: qRT-PCR gene expression, BAX; assay type: cell-based; settings: MDA-231 cells; 21.68 μM; control set to 1; mean ± SEM
Bcl-2 = test: qRT-PCR gene expression, Bcl-2; assay type: cell-based; settings: MDA-231 cells; 21.68 μM; control set to 1; mean ± SEM
BAX/Bcl-2 ratio = assay type: cell-based; settings: MDA-231 cells; 21.68 μM; control set to 1
caspase-8 = test: qRT-PCR gene expression, caspase-8; assay type: cell-based; settings: MDA-231 cells; 21.68 μM; control set to 1; mean ± SEM
caspase-9 = test: qRT-PCR gene expression, caspase-9; assay type: cell-based; settings: MDA-231 cells; 21.68 μM; control set to 1; mean ± SEM

Chain of VEGFR-2 (P35968 20-1356): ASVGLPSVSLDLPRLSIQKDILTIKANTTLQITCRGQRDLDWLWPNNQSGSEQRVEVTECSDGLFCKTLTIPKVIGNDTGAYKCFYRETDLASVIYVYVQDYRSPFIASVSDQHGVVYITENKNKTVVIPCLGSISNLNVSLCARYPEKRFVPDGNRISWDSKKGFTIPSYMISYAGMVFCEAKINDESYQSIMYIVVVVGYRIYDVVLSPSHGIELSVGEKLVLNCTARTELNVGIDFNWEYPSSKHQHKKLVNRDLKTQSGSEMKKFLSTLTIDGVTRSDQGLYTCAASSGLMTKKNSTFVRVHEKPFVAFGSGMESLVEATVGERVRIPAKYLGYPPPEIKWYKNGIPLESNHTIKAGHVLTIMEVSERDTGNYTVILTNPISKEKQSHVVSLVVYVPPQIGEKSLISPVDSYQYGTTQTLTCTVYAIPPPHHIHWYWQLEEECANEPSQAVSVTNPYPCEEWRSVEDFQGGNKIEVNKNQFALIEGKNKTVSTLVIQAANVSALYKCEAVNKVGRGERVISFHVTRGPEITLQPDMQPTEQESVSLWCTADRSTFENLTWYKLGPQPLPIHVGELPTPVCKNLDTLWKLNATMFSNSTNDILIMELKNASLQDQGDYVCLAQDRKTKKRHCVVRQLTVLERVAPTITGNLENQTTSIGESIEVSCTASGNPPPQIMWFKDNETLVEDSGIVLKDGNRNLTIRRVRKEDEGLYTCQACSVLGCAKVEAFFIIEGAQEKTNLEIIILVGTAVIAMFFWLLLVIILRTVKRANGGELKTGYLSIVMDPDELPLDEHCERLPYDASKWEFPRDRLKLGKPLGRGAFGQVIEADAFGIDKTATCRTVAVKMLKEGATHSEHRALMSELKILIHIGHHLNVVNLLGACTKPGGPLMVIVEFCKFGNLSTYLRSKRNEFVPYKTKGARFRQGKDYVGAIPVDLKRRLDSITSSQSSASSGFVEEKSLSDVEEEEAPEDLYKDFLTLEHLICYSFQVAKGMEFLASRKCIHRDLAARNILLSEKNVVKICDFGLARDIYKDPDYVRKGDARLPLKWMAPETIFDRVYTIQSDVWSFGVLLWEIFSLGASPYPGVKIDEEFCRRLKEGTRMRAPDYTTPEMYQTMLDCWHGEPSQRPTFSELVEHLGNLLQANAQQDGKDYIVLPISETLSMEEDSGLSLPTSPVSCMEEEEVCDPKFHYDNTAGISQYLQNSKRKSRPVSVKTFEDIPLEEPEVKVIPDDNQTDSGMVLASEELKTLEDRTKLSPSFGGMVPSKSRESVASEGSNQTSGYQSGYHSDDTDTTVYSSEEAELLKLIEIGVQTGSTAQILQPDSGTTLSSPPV

For COc1cccc(NC(=O)Nc2ccc(Oc3nc4ccccc4n4cnnc34)cc2)c1 [11d, 1-(4-([1,2,4]Triazolo[4,3-a]quinoxalin-4-yloxy)phenyl)-3-(3-methoxyphenyl)urea], the IC50 (VEGFR-2) was 62.3 ± 2.77 nM, the “Quantitative closure (%) for scratched assay after 48 h” value (MDA-231 cells) was 27.51% and the viability at 21.68 µM (MDA-MB-231 cells [1]; Homo sapiens, MDA-MB-231, 48 h, read-out: Viable (left bottom)) was 20.2%. The “Necrosis (left top)” value (MDA-MB-231 cells [1]; MDA-MB-231, 21.68 µM, 48 h, untreated 0.32) was 1.91 ^a %, the “Apoptosis, Late (right top)” value (MDA-MB-231 cells [1]; MDA-MB-231, 21.68 µM, 48 h, untreated 0.45) was 31.49 ^a % and the “Apoptosis, Early (right bottom)” value (MDA-MB-231 cells [1]; MDA-MB-231, 21.68 µM, 48 h, untreated 3.84) was 46.43 ^a %. The “Cell cycle distribution (%), % G2/M” value (MDA-MB-231 cells [2]; untreated 10.59) was 3.74 ^a %, the “Cell cycle distribution (%), % sub-G1” value (MDA-MB-231 cells [2]; untreated 19.48) was 15.75% and the “Cell cycle distribution (%), % S” value (MDA-MB-231 cells [2]; untreated 24.95) was 16.45 ^a %. The “Cell cycle distribution (%), % G1” value (MDA-MB-231 cells [2]; untreated 44.98) was 64.06 ^a %, the “Gene expression (fold change), BAX” value (BAX) was 5.48 ± 0.45 ^a fold change and the “Gene expression (fold change), Bcl-2” value (Bcl-2) was 0.34 ± 0.01 ^a fold change. For the same molecule, the “Gene expression (fold change), BAX/Bcl-2 ratio” value (BAX/Bcl-2 ratio) was 16.11 ± 1.01 fold change, the “Gene expression (fold change), Caspases-8” value (caspase-8) was 4.15 ± 0.48 ^a fold change and the “Gene expression (fold change), Caspases-9” value (caspase-9) was 5.58 ± 0.40 ^a fold change.
